Measurements as given in patent US4284773A, “1,2,3,5-Tetrahydroimidazothienopyrimidin-2-ones” (Daiichi Seiyaku Co., Ltd., priority 1978, dated 1981).

What was measured:
[1] = tested on: adenosine diphosphate (ADP) induced platelet aggregation; assay: in vitro inhibition of adenosine diphosphate (ADP) induced platelet aggregation, aggregometer method of Born, rat platelet rich plasma; assay type: cell-based; settings: rat citrated platelet rich plasma, 50% inhibition
Procedure: (§1) The aggregometer method of Born [G. V. Born, Nature, 194, 927 (1962)] was used to assess the in vitro activity of the various compounds as to inhibition of adenosine diphosphate (ADP) and collagen (Coll) induced platelet aggregation. Platelet rich plasma (PRP) was separated by centrifugation from citrated (0.313%) rat blood.
(§2) A methanolic solution of the test compound was added to the PRP, then aggregation was induced by adding to the mixture of ADP solution containing CaCl2 or a collagen suspension prepared according to the method described by Ashida et al [S. Ashida and Y. Abiko, Thromb. Diath. Haemorrh., 30, 528 (1975)], and the optical density of the resulting mixture was determined. […] A dose response curve was drawn from the results obtained above and the effective concentration giving a 50% inhibition (EC50) was calculated.

[2] = tested on: Platelet aggregation induced by collagen suspension; assay: ex vivo inhibition of collagen-induced platelet aggregation after oral administration in rat; settings: 50 mg/kg (p.o) in rat, blood collected 2 hours after oral administration, vs vehicle control rats
Procedure: Blood samples were collected 2 hours after oral administration of the
compound to be tested or vehicle alone. Platelet rich plasmas were
obtained by centrifugation of the blood. Platelet aggregation was induced
by adding collagen suspension to the platelet rich plasma and was compare
with that observed with the platelet rich plasma from the control rats

[3] = blood pressure of normal rat after oral administration; assay type: in vivo; settings: 50 mg/kg (p.o) in rat; 5-6 hours after oral administration
Procedure: The blood pressure of normal rat was measured at 5-6 hours after the oral administration at a dose of 50 mg/kg.

[4] = tested on: collagen (Coll) induced platelet aggregation; assay: in vitro inhibition of collagen (Coll) induced platelet aggregation, aggregometer method of Born, rat platelet rich plasma; assay type: cell-based; settings: rat citrated platelet rich plasma, 50% inhibition
Procedure: as §1, §2

SMILES | EC50 [1] [µM] | Inhibition of Platelet Aggregation ex vivo % Inhibition [2] [%] | Blood Pressure % Reduction [3] | EC50 [4] [µM]
Cc1cccc2c1CN1CC(=O)NC1=N2 [BL-3459, 6-methyl-1,2,3,5-tetrahydroimidazo[2,1-b]quinazolin-2-one, reference compound] | 5 | 57 | 35 + 3% | 0.8
Cc1sc2c(c1C)CN1CC(=O)NC1=N2 [Compound 1, 6,7-dimethyl-1,2,3,5-tetrahydroimidazo[1,2-a]thieno[2,3-d]pyrimidin-2-one] | 5 | 84 | 5 ± 3% | 1
Cc1csc2c1CN1CC(=O)NC1=N2 [Compound 4] | 19 |  |  | 15
Cc1c(Cl)sc2c1CN1CC(=O)NC1=N2 [Compound 6] | 4.2 | 24 |  | 1.9
O=C1CN2Cc3c(sc4c3CCCC4)N=C2N1 [Compound 8, 1,2,3,5,6,7,8,9-octahydroimidazo[1,2-a][1]benzothieno[2,3-d]pyrimidin-2-one] | 5 | 57 | 8 ± 2% | 0.1
O=C1CN2Cc3c(sc4c3CCCCC4)N=C2N1 [Compound 9] | 20 |  |  | 15
O=C1CN2Cc3sccc3N=C2N1 [Compound 11] | 85 |  |  | 10
Cc1scc2c1CN1CC(=O)NC1=N2 [Compound 14] | 17 | 32 |  | 3.5
CCCc1c(CC)sc2c1CN1CC(=O)NC1=N2 [Compound 15] | 3 | 90 |  | 2.2
CCCc1sc2c(c1C)CN1CC(=O)NC1=N2 [Compound 16] | 0.58 | 60 |  | 0.08
CCCCCc1sc2c(c1C)CN1CC(=O)NC1=N2 [Compound 17] | 2 |  |  | 0.19
CC1C(=O)NC2=Nc3sc4c(c3CN21)CCCC4 (stereo not shown) [Compound 18] | 48 |  |  | 0.6
